Active and inactive are the calls of the source. The calls are words filed in the database; no cut-off is given here.
Experiments:
[1] = molecular target: Acetylcholinesterase (Electrophorus electricus) (UniProt O42275); assay: Mixed type inhibition of Electrophorus electricus (electric eel) acetylcholinesteraseAChE using acetylthiocholine iodide substrate by Ellman method based colorimetry
[2] = molecular target: Acetylcholinesterase (Electrophorus electricus) (UniProt O42275); assay: Reversible inhibition of Electrophorus electricus (electric eel)acetylcholinesterase (AChE) using acetylthiocholine iodide substrate by Ellman method based colorimetry
Acetylcholinesterase = Acetylcholinesterase (Electrophorus electricus, UniProt O42275); assay: Inhibition of Electrophorus electricus (electric eel) acetylcholinesterase (AChE) using acetylthiocholine iodide substrate by Ellman method based colorimetry
Chain of Acetylcholinesterase (O42275 whole entry): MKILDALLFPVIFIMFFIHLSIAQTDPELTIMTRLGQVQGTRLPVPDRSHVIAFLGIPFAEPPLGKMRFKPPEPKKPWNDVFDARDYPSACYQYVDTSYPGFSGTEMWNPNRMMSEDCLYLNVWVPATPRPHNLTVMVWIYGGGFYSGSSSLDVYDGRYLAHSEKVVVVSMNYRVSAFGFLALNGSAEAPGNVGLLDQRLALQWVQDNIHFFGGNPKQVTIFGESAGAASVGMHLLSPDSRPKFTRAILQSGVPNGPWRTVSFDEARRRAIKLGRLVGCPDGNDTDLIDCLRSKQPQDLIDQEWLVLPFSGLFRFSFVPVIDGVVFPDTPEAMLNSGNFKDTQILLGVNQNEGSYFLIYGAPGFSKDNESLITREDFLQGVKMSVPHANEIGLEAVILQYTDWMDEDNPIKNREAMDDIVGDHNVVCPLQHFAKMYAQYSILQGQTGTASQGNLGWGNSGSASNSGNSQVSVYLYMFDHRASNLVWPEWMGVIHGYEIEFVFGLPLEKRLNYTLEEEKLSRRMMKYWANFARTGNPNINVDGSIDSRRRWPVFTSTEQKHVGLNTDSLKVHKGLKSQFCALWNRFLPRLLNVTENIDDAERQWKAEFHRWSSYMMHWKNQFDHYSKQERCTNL

[3] = molecular target: Acetylcholinesterase (Electrophorus electricus) (UniProt O42275); assay: Competitive inhibition of Electrophorus electricus (electric eel) acetylcholinesterase (AChE) using acetylthiocholine iodide substrate by Ellman method based colorimetry
[4] = molecular target: Acetylcholinesterase (Electrophorus electricus) (UniProt O42275); assay: Inhibition of Electrophorus electricus (electric eel) acetylcholinesterase (AChE) at 100 mM using 10 mM acetylthiocholine iodide substrate after 15 min by Ellman method based colorimetry
[5] = molecular target: Acetylcholinesterase (Electrophorus electricus) (UniProt O42275); assay: Inhibition of Electrophorus electricus (electric eel) acetylcholinesterase (AChE) at 50 mM using 5 mM acetylthiocholine iodide substrate after 15 min by Ellman method based colorimetry
[6] = molecular target: Acetylcholinesterase (Electrophorus electricus) (UniProt O42275); assay: Inhibition of Electrophorus electricus (electric eel) acetylcholinesterase (AChE) at 10 mM using 2 mM acetylthiocholine iodide substrate after 15 min by Ellman method based colorimetry
[7] = molecular target: Acetylcholinesterase (Electrophorus electricus) (UniProt O42275); assay: Inhibition of Electrophorus electricus (electric eel) acetylcholinesterase (AChE) at 1 mM using 1 mM acetylthiocholine iodide substrate after 15 min by Ellman method based colorimetry

Chain of Acetylcholinesterase (Electrophorus electricus) (O42275 24-633 limits assumed): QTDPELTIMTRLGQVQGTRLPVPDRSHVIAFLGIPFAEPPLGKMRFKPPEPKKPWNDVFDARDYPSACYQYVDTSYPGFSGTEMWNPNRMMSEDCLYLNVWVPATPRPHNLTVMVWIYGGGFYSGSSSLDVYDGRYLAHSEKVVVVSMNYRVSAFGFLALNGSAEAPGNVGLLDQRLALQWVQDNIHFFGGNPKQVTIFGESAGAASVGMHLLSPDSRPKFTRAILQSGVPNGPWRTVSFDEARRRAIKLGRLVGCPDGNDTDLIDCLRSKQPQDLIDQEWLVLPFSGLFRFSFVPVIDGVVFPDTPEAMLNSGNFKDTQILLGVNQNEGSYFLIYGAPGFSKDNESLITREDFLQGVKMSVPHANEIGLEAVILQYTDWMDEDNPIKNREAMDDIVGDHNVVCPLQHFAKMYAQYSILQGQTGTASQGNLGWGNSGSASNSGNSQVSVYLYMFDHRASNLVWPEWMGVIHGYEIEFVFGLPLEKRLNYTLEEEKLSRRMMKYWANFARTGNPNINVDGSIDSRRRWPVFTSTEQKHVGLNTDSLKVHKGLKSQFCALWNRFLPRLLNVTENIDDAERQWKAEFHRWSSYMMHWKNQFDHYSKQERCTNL

SMILES	inhibition [1]	inhibition [2]	Ki (Acetylcholinesterase; read-out: Ki) [µM]	Ki (Acetylcholinesterase)	inhibition [3]	inhibition [4] [%]	inhibition [5] [%]	inhibition [6] [%]	inhibition [7] [%]
C=C(C)[C@H]1CC=C(C)C(=O)C1 [(S)(+)CARVONE]	Active	Active	300						
C/C=C/c1ccc(OC)cc1 [ANETHOLE]		Active		Not Active					
CC12CCC(CC1=O)C2(C)C (configuration not stated) [CAMPHOR]	Active	Active	50						
C=CCc1ccc(OC)cc1 [ESTRAGOLE]	Active	Active	150						
CC12CCC(C1)C(C)(C)C2=O (configuration not stated) [FENCHONE]		Active	400		Active	90.7	84.1	79.8	53.8
CC1=CCC(C(C)C)=CC1 [GAMMA-TERPINENE]		Active	200		Active				
CC(C)=CCC/C(C)=C/CO [GERANIOL]		Active	100		Active				
C=CC(C)(O)CCC=C(C)C (configuration not stated) [LINALOOL]		Active	300		Active				

— ChEMBL document CHEMBL3045849, “Mode of inhibition of acetylcholinesterase by monoterpenoids and implications for pest control” (Ind Crops Prod, 2010)
